Like-named read-outs stand apart in the source and are kept apart here.
What was measured:
[1] = molecular target: T1, FleA (AFL, Aspergillus fumigatus lectin) (Aspergillus fumigatus, UniProt Q4WW81); assay: competition plate assay: biotinylated FleA binding to immobilised human airway mucin
T1 construct: about 34 kDa; no canonical signal peptide

PA-IIL (PAIIL) = molecular target: T2, PA-IIL (PAIIL) (Pseudomonas aeruginosa, UniProt Q9HYN5); assay: competition assay: PA-IIL binding to human airway mucin
T2 construct: gene lecB

[2] = molecular target: T1, FleA (AFL, Aspergillus fumigatus lectin); assay: competition plate assay: biotinylated FleA binding to immobilised human airway mucin; settings: 10 mM CaCl2, TBS-Tween; 100 mM L-galactose

T1 sequence (Q4WW81 whole entry): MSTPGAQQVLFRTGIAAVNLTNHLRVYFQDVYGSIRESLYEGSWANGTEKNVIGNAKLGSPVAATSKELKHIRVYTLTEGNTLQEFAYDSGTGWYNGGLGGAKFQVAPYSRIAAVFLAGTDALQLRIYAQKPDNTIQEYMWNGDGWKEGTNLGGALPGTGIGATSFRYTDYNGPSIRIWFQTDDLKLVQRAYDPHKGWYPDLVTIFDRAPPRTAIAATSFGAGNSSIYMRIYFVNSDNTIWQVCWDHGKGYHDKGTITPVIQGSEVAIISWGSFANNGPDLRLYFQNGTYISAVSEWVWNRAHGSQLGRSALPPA
T2 sequence (Q9HYN5 entry or part of it): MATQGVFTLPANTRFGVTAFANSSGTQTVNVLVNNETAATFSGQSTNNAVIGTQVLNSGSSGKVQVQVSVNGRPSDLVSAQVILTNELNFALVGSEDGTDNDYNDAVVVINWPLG

| SMILES | IC50 [1] [µM] | other results |
| --- | --- | --- |
| C[C@@H]1OC(O)[C@@H](O)[C@H](O)[C@@H]1O (stereo partly drawn) [L-fucose] | – | IC50 ([1]; 10 mM CaCl2, TBS-Tween, inhibition of FleA-mucin binding): 801 µM |
| CCC/C=C/CO[C@@H]1O[C@@H](C)[C@@H](O)[C@@H](O)[C@@H]1O [(2E)-hexenyl α-L-fucopyranoside] | 0.012 | IC50 (PA-IIL (PAIIL)): 1600 nM |
| CO[C@@H]1O[C@@H](C)[C@@H](O)[C@@H](O)[C@@H]1O [methyl α-L-fucopyranoside] | 450 | – |
| OC[C@@H]1OC(O)[C@@H](O)[C@H](O)[C@@H]1O (stereo partly drawn) [L-galactose] | – | inhibition at 100 mM [2]: No inhibition was observed with galactose (Fig 1A) |
| C=CCO[C@@H]1O[C@@H](C)[C@@H](O)[C@@H](O)[C@@H]1O [allyl α-L-fucopyranoside] | 264 | – |
| CCCCCCO[C@@H]1O[C@@H](C)[C@@H](O)[C@@H](O)[C@@H]1O [hexyl α-L-fucopyranoside] | 361 | – |
| CCC/C=C/CO[C@H]1O[C@H](CO)[C@H](O)[C@H](O)[C@H]1O [(2E)-hexenyl α-D-galactopyranoside] | 15300 | – |
| CCCCC/C=C/CO[C@@H]1O[C@@H](C)[C@@H](O)[C@@H](O)[C@@H]1O [(2E)-octenyl α-L-fucopyranoside] | 2100 | – |
